Measurements as given in ChEMBL document CHEMBL1201862, “PubChem BioAssay data set” (2004).
Calls of active or inactive are those of the source.

Assays:
[1] = molecular target: Transitional endoplasmic reticulum ATPase (Homo sapiens, UniProt P55072, C522A); assay: C522A mutant p97 ATPase inhibitors, dose response, counter-screen for p97 inhibitor project, biochemical, luminescence (AID 1544)
[2] = molecular target: Transitional endoplasmic reticulum ATPase (Homo sapiens, UniProt P55072); assay: p97 ATPase inhibitors, dose response, biochemical (AID 1534)
Sequence of Transitional endoplasmic reticulum ATPase (Homo sapiens, UniProt P55072) (P55072 whole entry): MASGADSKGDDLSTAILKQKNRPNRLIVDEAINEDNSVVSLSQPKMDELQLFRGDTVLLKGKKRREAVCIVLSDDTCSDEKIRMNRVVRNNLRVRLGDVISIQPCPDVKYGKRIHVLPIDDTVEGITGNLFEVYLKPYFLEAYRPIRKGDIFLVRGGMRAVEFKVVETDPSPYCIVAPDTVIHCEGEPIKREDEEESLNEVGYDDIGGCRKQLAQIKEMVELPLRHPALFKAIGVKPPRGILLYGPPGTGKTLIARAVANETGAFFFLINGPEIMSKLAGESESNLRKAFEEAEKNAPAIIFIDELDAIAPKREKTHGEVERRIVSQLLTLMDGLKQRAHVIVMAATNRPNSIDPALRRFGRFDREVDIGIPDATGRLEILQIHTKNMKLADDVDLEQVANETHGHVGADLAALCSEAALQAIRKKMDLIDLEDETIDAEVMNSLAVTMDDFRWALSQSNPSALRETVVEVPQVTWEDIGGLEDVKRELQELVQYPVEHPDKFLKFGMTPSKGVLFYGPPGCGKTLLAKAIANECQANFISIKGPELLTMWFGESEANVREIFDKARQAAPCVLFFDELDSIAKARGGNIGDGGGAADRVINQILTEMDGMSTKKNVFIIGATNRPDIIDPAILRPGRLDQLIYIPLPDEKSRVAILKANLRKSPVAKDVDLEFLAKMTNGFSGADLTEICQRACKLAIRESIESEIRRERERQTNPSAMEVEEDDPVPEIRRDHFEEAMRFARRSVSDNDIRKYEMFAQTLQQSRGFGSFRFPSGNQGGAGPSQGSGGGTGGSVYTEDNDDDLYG

[3] = molecular target: T1, Tyrosyl-DNA phosphodiesterase 2 (Homo sapiens, UniProt O95551); assay: human TDP2 enzyme inhibitors, dose response, biochemical, epi absorbance, IC50 (AID 743297)
T1 sequence (O95551 whole entry): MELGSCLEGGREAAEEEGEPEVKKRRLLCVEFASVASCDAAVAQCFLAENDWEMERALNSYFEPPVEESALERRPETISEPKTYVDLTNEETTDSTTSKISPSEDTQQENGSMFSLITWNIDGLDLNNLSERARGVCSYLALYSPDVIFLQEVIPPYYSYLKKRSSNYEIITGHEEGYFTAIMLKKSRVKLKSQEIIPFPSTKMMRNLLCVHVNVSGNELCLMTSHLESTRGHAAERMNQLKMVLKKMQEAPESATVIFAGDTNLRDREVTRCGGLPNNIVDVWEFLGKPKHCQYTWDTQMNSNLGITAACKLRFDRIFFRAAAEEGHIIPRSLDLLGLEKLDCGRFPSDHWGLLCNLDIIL

[4] = molecular target: T2, Microphthalmia-associated transcription factor (Homo sapiens, UniProt O75030); assay: TRPM1 promoter luciferase signal decrease, dose response, MITF inhibitor project, cell-based, SK-MEL-5, cherry-picked, set 3 (AID 493073); assay type: functional
T2 sequence (O75030 whole entry): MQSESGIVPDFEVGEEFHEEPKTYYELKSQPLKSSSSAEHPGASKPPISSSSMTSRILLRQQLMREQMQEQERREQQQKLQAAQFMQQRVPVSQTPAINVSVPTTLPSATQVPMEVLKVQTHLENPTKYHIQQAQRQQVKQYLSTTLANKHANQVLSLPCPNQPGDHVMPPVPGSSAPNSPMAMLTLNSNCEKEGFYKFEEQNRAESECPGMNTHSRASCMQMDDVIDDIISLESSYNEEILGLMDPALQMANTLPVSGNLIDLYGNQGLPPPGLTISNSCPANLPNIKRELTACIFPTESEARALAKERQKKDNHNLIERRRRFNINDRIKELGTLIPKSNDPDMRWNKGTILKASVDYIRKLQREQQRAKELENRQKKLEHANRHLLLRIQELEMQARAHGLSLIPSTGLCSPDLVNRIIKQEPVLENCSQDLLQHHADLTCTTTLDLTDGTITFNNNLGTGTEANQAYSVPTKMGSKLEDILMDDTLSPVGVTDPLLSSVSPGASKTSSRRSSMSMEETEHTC

[5] = molecular target: T3, RNA-binding protein pos-1 (Caenorhabditis elegans, UniProt G5EF15); assay: inhibitors of POS-1/mex-3 RNA binding, dose response, biochemical, fluorescence polarization (AID 1964);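 note: purified POS-1 fused to maltose binding protein made in E. coli; potency of compounds blocking POS-1 binding to fluorescent RNA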
T3 sequence (G5EF15 whole entry): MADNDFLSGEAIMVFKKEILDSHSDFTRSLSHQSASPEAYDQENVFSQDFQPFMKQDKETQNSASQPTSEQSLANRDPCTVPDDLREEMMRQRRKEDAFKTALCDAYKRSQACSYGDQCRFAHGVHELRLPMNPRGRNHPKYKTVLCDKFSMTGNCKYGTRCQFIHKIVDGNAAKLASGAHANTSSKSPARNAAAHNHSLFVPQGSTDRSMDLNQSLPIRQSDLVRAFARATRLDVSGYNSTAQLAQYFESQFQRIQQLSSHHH

[6] = molecular target: T4, Zinc finger protein mex-5 (Caenorhabditis elegans, UniProt Q9XUB2); assay: MEX-5/TCR-2 RNA interaction inhibitors, dose response, biochemical, C. elegans, fluorescence polarization (AID 1960)
T4 sequence (Q9XUB2 whole entry): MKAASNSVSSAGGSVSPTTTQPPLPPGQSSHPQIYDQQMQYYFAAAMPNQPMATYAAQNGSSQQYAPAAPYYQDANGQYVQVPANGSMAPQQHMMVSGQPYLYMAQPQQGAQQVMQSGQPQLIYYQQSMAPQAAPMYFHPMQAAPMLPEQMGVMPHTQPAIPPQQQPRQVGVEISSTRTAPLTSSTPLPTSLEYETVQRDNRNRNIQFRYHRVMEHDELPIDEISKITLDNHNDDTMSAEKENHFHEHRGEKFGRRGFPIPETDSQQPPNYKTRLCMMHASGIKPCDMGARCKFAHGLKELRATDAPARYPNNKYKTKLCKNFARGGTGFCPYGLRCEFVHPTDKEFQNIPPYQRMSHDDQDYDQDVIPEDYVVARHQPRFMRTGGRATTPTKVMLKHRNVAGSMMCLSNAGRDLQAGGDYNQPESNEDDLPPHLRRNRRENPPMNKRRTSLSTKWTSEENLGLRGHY

[7] = molecular target: Heat shock protein HSP 90-alpha (Homo sapiens, UniProt P07900); assay type: functional, organism-based
CHO = assay: cytotoxicity in TLR9-MyD88 CHO cells, dose response, cytotoxicity control for TLR9-MyD88 binding inhibitor project, cell-based, luminescence (AID 588339); assay type: functional, hamster; conditions: Cricetulus griseus;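 note: CHO cells stably coexpressing TLR9 and MyD88 fusions from primary screen; compound exposure lasted 48 hours before viability readout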
[8] = C. albicans growth with fluconazole, confirmation, fluorescence, retest (AID 2467); assay type: functional, cell-based
Streptococcus = assay: Group A Streptococcus viability loss, dose response, counter-screen for streptokinase expression inhibitor project, luminescence, BacTiterGlo (AID 1915); assay type: functional, organism-based;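 note: potency for reduction of bacterial viability or growth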
Paired box protein Pax-8 = Paired box protein Pax-8 (Homo sapiens, UniProt Q06710); assay: inhibitors of PAX8-driven TPO luciferase reporter, dose response, RMG-I cells, cherry-pick (AID 687027); assay type: functional, cell-based;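 note: luciferase reporter driven by Pax8 target thyroperoxidase promoter measured by SteadyGlo luminescence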
Sequence of Paired box protein Pax-8 (Q06710 whole entry): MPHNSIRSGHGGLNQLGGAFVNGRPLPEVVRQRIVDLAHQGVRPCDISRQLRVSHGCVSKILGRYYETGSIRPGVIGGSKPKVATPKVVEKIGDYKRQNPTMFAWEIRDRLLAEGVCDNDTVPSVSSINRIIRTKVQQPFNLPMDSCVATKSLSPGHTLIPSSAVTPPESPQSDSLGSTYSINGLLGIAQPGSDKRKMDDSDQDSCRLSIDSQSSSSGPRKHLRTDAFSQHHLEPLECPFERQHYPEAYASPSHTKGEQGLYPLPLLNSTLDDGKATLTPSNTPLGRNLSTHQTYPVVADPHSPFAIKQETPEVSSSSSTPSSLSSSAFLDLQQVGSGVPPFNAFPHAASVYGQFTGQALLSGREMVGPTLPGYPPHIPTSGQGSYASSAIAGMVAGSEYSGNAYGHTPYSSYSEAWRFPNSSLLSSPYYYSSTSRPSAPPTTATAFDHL

[9] = Shn3 3'UTR reporter inhibitors, dose response, cell-based, Clone20 osteoblasts, firefly luciferase, cherry-picked (AID 624132); assay type: functional;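 note: firefly luciferase luminescence from reporter carrying the Shn3 3'UTR in osteoblasts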
[10] = inhibitors of intracellular T. cruzi replication, confirmation, NIH3T3 host cells, beta-gal luminescence (AID 2044); assay type: functional, cell-based;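 note: intracellular parasites grown in NIH/3T3 mouse fibroblasts as host cells; luminescent beta-galactosidase reporter signal from transgenic T. cruzi replicating inside host cells; inhibitors lower the luminescence signal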
[11] = tested on: Streptococcus sp. 'group A'; assay: growth inhibition of control SK(-) GAS strain, dose response, counter-screen for streptokinase expression inhibitor project, luminescence, kanamycin, BacTiterGlo, confirmation (AID 1900); assay type: functional, organism-based
Vero = assay: cells; assay type: functional, cell-based; conditions: Chlorocebus sabaeus
[12] = NIH-3T3 fibroblast cytotoxicity, dose response, cytotoxicity control, cell-based, fluorescence, Alamar Blue, secondary assay (AID 2327); assay type: functional;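 note: NIH-3T3 mouse fibroblasts cultured with fluconazole at 8 µg/mL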
BJ = assay: cytotoxicity toward BJ-TERT-LT-ST fibroblasts, dose response, cell-based, RAS-independent, luminescence (AID 1935); assay type: functional; conditions: Homo sapiens;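 note: BJ fibroblasts immortalized with TERT plus LT and ST oncogenes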

Sequence of Transitional endoplasmic reticulum ATPase (Homo sapiens, UniProt P55072, C522A) (P55072 2-806 C522A limits assumed): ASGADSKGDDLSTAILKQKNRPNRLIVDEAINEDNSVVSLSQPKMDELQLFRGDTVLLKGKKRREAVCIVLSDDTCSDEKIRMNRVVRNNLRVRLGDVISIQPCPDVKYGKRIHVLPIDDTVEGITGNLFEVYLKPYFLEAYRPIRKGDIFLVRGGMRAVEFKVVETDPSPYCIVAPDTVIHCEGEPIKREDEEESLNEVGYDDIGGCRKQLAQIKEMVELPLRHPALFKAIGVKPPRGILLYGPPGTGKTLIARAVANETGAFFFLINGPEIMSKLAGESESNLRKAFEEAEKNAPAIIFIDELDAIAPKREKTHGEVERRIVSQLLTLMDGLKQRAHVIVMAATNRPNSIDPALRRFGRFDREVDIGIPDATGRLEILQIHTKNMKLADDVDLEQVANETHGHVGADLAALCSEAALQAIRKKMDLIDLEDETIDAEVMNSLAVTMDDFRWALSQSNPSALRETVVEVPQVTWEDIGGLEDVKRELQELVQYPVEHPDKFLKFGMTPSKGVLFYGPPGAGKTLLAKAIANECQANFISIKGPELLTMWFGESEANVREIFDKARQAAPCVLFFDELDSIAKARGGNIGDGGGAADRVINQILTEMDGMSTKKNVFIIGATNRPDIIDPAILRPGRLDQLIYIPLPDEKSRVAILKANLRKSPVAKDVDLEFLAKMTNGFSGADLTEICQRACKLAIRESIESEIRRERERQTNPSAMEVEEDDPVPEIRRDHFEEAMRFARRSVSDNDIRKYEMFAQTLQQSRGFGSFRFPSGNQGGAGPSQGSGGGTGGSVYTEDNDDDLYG

## N#Cc1c(N2CCCCC2)nc(N)c2c(N)nc(SCC(=O)O)cc12
[1]
  IC50: > 50 µM (not active)
[2]
  IC50: > 50 µM (not active)

## CC1(C)Cc2ccccc2C2=NNC(=O)C2=N1
[3]
  IC50: 22.9 µM (inactive)
[4]
  AC50: 3.62 µM (active)

## CCc1ccc(S(=O)(=O)Nc2cc(SCC(=O)O)c(O)c3ccccc23)cc1
[3]
  IC50: 85.9 µM (inactive)
[5]
  EC50: 35.5 µM (active)
[6]
  EC50: 11.5 µM (active)

## O=[N+]([O-])c1ccc(Sc2cccc[n+]2[O-])c2nonc12
[7]
  AC50: 3.91 µM (active)
CHO
  IC50: 0.448 µM (active)

## CCCC(=O)NC(c1ccc(C(C)C)cc1)c1ccc2cccnc2c1O (stereo not drawn)
[8]
  EC50: 0.621 µM (active)
Streptococcus
  EC50: 6.95 µM (active)
Paired box protein Pax-8
  AC50: 1.21 µM (active)
[9]
  AC50: 0.47 µM (active)
[10]
  EC50: 0.227 µM (active)
[11]
  EC50: 2.55 µM (active)
Vero
  IC50: > 25 µM (active)
[12]
  EC50: 22.1 µM (inconclusive)
BJ
  EC50: 2.1 µM (inconclusive)

## Oc1c(Cl)cc(Cl)c(Cl)c1Cc1c(O)c(Cl)cc(Cl)c1Cl [HEXACHLOROPHENE]
[8]
  EC50: > 38 µM (not active)
[1]
  IC50: > 50 µM (not active)
Streptococcus
  EC50: 0.262 µM (active)
Paired box protein Pax-8
  AC50: 3.3 µM (active)
[7]
  AC50: 0.77 µM (active)
[11]
  EC50: 0.244 µM (active)
[12]
  EC50: 16.2 µM (active)
[5]
  EC50: 45.4 µM (inconclusive)
[6]
  EC50: 19.1 µM (inconclusive)
[2]
  IC50: 5.49 µM (active)
